Measurements published in patent US9302999B2, “Substituted triazoles as herbicides” (E. I. DU PONT DE NEMOURS AND COMPANY, priority 2012, dated 2016).

Legend:
Type in all cases: in vivo
[1] = tested on: foxtail, green (green foxtail Setaria viridis); assay: Test F pre-/postemergence: foxtail, green; settings: Preemergence
From the text: (§1) Seeds of plant species selected from corn (Zea mays), soybean (Glycine max), velvetleaf (Abutilon theophrasti), lambsquarters (Chenopodium album), poinsettia, wild (wild poinsettia, Euphorbia heterophylla), pigweed, palmer (palmer pigweed, Amaranthus palmeri), waterhemp (common waterhemp, Amaranthus rudis), surinam grass (Brachiaria decumbens), crabgrass, Brazil (Brazilian crabgrass, Digitaria horizontalis), panicum, fall (fall panicum Panicum dichotomiflorum), crabgrass, large (large crabgrass, Digitaria sanguinalis), foxtail, giant (giant foxtail, Setaria faberii), foxtail, green (green foxtail Setaria viridis), goosegrass (Eleusine indica), ragweed (common ragweed, Ambrosia elatior), barnyardgrass (Echinochloa crus-galli), sandbur (southern sandbur, Cenchrus echinatus), arrowleaf sida (Sida rhombifolia), ryegrass, Italian (Italian ryegrass, Lolium multiflorum), dayflower, VA (Virginia (VA) dayflower, Commelina virginica), field bindweed (Convolvulus arvensis), cocklebur (common cocklebur, Xanthium strumarium), morningglory (Ipomoea coccinea), nightshade (eastern black nightshade, Solanum ptycanthum), kochia (Kochia scoparia), nutsedge, yellow (yellow nutsedge, Cyperus esculentus), johnsongrass (Sorghum halepense), smartweed (ladysthumb smartweed, Polygonum persicaria), and beggarticks (hairy beggarticks, Bidens pilosa), were planted into a silt loam soil and treated preemergence with test chemicals formulated in a non-phytotoxic solvent mixture which included a surfactant. At the same time, plants selected from these crop and weed species and also pigweed (Amaranthus retroflexus), waterhemp_RES1 (ALS/Triazine resistant common waterhemp, Amaranthus rudis) and waterhemp_RES2 (ALS/HPPD resistant common waterhemp, Amaranthus rudis) were planted in pots containing a planting medium comprising spaghnum peat moss, vermiculite, wetting agent and starter nutrients treated with postemergence applications of some of the test chemicals formulated in the same manner. Plants ranged in height from 2 to 18 cm for postemergence treatments (1- to 4-leaf stage).
(§2) Treated plants and controls were maintained in a greenhouse for 14 to 21 days, after which time all species were compared to controls and visually evaluated. Plant response ratings, summarized in Table E, are based on a scale of 0 to 100 where 0 is no effect and 100 is complete control. A dash (-) response means no test result.

[2] = tested on: surinam grass (Brachiaria decumbens); assay: Test F pre-/postemergence: surinam grass; settings: Preemergence
From the text: as §1, §2

[3] = tested on: panicum, fall (fall panicum Panicum dichotomiflorum); assay: Test F pre-/postemergence: panicum, fall; settings: Preemergence
Method in brief: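 Seeds were sown in silt loam soil and sprayed preemergence with test chemical in a non-phytotoxic solvent mixture containing surfactant; postemergence treatments went onto plants 2 to 18 cm tall (1- to 4-leaf stage) grown in peat moss/vermiculite medium. After 14 to 21 days in a greenhouse, injury was rated visually against controls, 0 (no effect) to 100 (complete control).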

[4] = tested on: mustard, wild (wild mustard, Sinapis arvensis); assay: Test D pre-/postemergence: mustard, wild
From the text: (§3) Seeds of plant species selected from bluegrass (annual bluegrass, Poa annua), blackgrass (Alopecurus myosuroides), canarygrass (Phalaris minor), chickweed (common chickweed, Stellaria media), galium (catchweed bedstraw, Galium aparine), bromegrass, downy (downy bromegrass, Bromus tectorum), field poppy (Papaver rhoeas), field violet (Viola arvensis), foxtail, green (green foxtail, Setaria viridis), deadnettle (henbit deadnettle, Lamium amplexicaule), ryegrass, Italian (Italian ryegrass, Lolium multiflorum), kochia (Kochia scoparia), lambsquarters (Chenopodium album), oilseed rape (Brassica napus), pigweed (Amaranthus retroflexus), Russian thistle (Salsola iberica), chamomile (scentless chamomile, Matricaria inodora), speedwell (bird's-eye speedwell, Veronica persica), barley, spring (spring barley, Hordeum vulgare), wheat, spring (spring wheat, Triticum aestivum), buckwheat, wild (wild buckwheat, Polygonum convolvulus), mustard, wild (wild mustard, Sinapis arvensis), oat, wild (wild oat, Avena fatua), radish, wild (wild radish, Raphanus raphanistrum), windgrass (Apera spica-venti), barley, winter (winter barley, Hordeum vulgare), and wheat, winter (winter wheat, Triticum aestivum) were planted into a silt loam soil and treated preemergence with test chemicals formulated in a non-phytotoxic solvent mixture which included a surfactant. At the same time, these same crop and weed species were planted in pots containing the planting medium comprising spaghnum peat moss, vermiculite, wetting agent and starter nutrients and treated with postemergence applications of the test chemicals formulated in the same manner. Plants ranged in height from 2 to 18 cm (1- to 4-leaf stage).
as §2, with “controlled growth environment” for “greenhouse”, “days” for “days,”, “D,” for “E,”

[5] = tested on: kochia (Kochia scoparia); assay: Test D pre-/postemergence: kochia
From the text: as §3
as §2, with “controlled growth environment” for “greenhouse”, “days” for “days,”, “D,” for “E,”

[6] = tested on: lambsquarters (Chenopodium album); assay: Test D pre-/postemergence: lambsquarters
From the text: as §3
as §2, with “controlled growth environment” for “greenhouse”, “days” for “days,”, “D,” for “E,”

[7] = 16 g ai/ha, scale 0 to 100, 0 no effect, 100 complete control
[8] = 31 g ai/ha, scale 0 to 100, 0 no effect, 100 complete control
[9] = Postemergence, 31 g ai/ha, scale 0 to 100 (0 no effect, 100 complete control)
[10] = Postemergence, 62 g ai/ha, scale 0 to 100 (0 no effect, 100 complete control)
[11] = Postemergence, 125 g ai/ha, scale 0 to 100, 0 no effect, 100 complete control
[12] = Postemergence, 16 g ai/ha, scale 0 to 100
[13] = Preemergence, 16 g ai/ha, scale 0 to 100, 0 no effect, 100 complete control
[14] = Preemergence, 31 g ai/ha, scale 0 to 100, 0 no effect, 100 complete control
[15] = Preemergence, 62 g ai/ha, scale 0 to 100
[16] = Preemergence, 125 g ai/ha, scale 0 to 100

COc1nn(-c2cccc(F)c2)nc1Cc1ccnc(C(F)(F)F)c1 [Compound 139]
Plant response rating, Foxtail, Green [1, 7]: 10 | Plant response rating, Foxtail, Green [1, 8]: 35 | Plant response rating, Foxtail, Green ([1]; 62 g ai/ha, scale 0 to 100): 98 | Plant response rating, Foxtail, Green ([1]; 125 g ai/ha, scale 0 to 100): 100 | Plant response rating, Foxtail, Green ([1]; 250 g ai/ha, scale 0 to 100): 100 | Plant response rating, Surinam Grass [2, 7]: 0 | Plant response rating, Surinam Grass [2, 8]: 0 | Plant response rating, Surinam Grass ([2]; 125 g ai/ha, scale 0 to 100): 75 | Plant response rating, Surinam Grass ([2]; 250 g ai/ha, scale 0 to 100): 75 | Plant response rating, Panicum, Fall [3, 7]: 0 | Plant response rating, Panicum, Fall [3, 8]: 25 | Plant response rating, Panicum, Fall ([3]; 125 g ai/ha, scale 0 to 100): 100 | Plant response rating, Panicum, Fall ([3]; 250 g ai/ha, scale 0 to 100): 100

Cc1nn(-c2ccc(F)cc2F)nc1Oc1ccnc(C(F)(F)F)c1 [Compound 146]
Plant response rating, Foxtail, Green [1, 7]: 20 | Plant response rating, Foxtail, Green [1, 8]: 20 | Plant response rating, Foxtail, Green ([1]; 62 g ai/ha, scale 0 to 100): 50 | Plant response rating, Foxtail, Green ([1]; 125 g ai/ha, scale 0 to 100): 100 | Plant response rating, Foxtail, Green ([1]; 250 g ai/ha, scale 0 to 100): 100 | Plant response rating, Surinam Grass [2, 7]: 0 | Plant response rating, Surinam Grass [2, 8]: 0 | Plant response rating, Surinam Grass ([2]; 125 g ai/ha, scale 0 to 100): 20 | Plant response rating, Surinam Grass ([2]; 250 g ai/ha, scale 0 to 100): 35 | Plant response rating, Panicum, Fall [3, 7]: 0 | Plant response rating, Panicum, Fall [3, 8]: 5 | Plant response rating, Panicum, Fall ([3]; 125 g ai/ha, scale 0 to 100): 100 | Plant response rating, Panicum, Fall ([3]; 250 g ai/ha, scale 0 to 100): 100

Cc1nn(-c2ccc(C(F)(F)F)c(F)c2)nc1Oc1ccnc(C(F)(F)F)c1 [Compound 148]
Plant response rating: Mustard, Wild [4, 9]: 100 | Plant response rating: Mustard, Wild [4, 10]: 100 | Plant response rating: Mustard, Wild [4, 11]: 100 | Plant response rating, Mustard, Wild [4, 12]: 55 | Plant response rating, Mustard, Wild [4, 13]: 20 | Plant response rating, Mustard, Wild [4, 14]: 15 | Plant response rating, Mustard, Wild [4, 15]: 55 | Plant response rating, Mustard, Wild [4, 16]: 95 | Plant response rating, Foxtail, Green [1, 7]: 35 | Plant response rating, Foxtail, Green [1, 8]: 100 | Plant response rating, Foxtail, Green ([1]; 62 g ai/ha, scale 0 to 100): 100 | Plant response rating, Foxtail, Green ([1]; 125 g ai/ha, scale 0 to 100): 100 | Plant response rating, Foxtail, Green ([1]; 250 g ai/ha, scale 0 to 100): 100 | Plant response rating, Surinam Grass [2, 7]: 25 | Plant response rating, Surinam Grass [2, 8]: 40 | Plant response rating, Surinam Grass ([2]; 125 g ai/ha, scale 0 to 100): 98 | Plant response rating, Surinam Grass ([2]; 250 g ai/ha, scale 0 to 100): 98 | Plant response rating: Kochia [5, 9]: 85 | Plant response rating: Kochia [5, 10]: 85 | Plant response rating: Kochia [5, 11]: 85 | Plant response rating, Kochia [5, 12]: 75 | Plant response rating, Kochia [5, 13]: 10 | Plant response rating, Kochia [5, 14]: 20 | Plant response rating, Kochia [5, 15]: 10 | Plant response rating, Kochia [5, 16]: 75 | Plant response rating: Lambsquarters [6, 9]: 85 | Plant response rating: Lambsquarters [6, 10]: 95 | Plant response rating: Lambsquarters [6, 11]: 95 | Plant response rating, Lambsquarters [6, 12]: 85 | Plant response rating, Lambsquarters [6, 13]: 35 | Plant response rating, Lambsquarters [6, 14]: 40 | Plant response rating, Lambsquarters [6, 15]: 80 | Plant response rating, Lambsquarters [6, 16]: 90 | Plant response rating, Panicum, Fall [3, 7]: 75 | Plant response rating, Panicum, Fall [3, 8]: 85 | Plant response rating, Panicum, Fall ([3]; 125 g ai/ha, scale 0 to 100): 100 | Plant response rating, Panicum, Fall ([3]; 250 g ai/ha, scale 0 to 100): 100
